Data reported in US5258406A, “Sulfonimidamides” (priority 1992, dated 1993).
Read-outs that look alike come from different tables or passages of the source.

Tested on: 6C3HED lymphosarcoma
Test: animal or person
Type: in vivo
Protocol: The compounds were tested in C3H mice bearing a 6C3HED lymphosarcoma, also known as the Gardner lymphosarcoma (GLS), and in a variety of human tumor xenografts in CD1 nu/nu mice, including CX-1, LX-1, HXGC3, and VRC5. The 6C3HED lymphosarcoma was obtained from the Division of Cancer Treatment, National […] Institute, Tumor Bank, maintained at E. G. and G. Mason Research (Worcester, Mass.). The CX-1 human colon carcinoma and the LX-1 human lung carcinoma xenografts were obtained from the National Cancer Institute. The HXGC3 and VRC5 human colon xenografts were obtained from Dr. P. J. Houghton, St. Jude Children's Hospital in Memphis (see Br. J. Cancer, 37, 213 (1978)). First passage tumor was stored in liquid nitrogen using standard techniques. The transplanted tumor was reestablished from the Tumor Bank every six months or as needed. The tumor was maintained by serial passage twice weekly in C3H mice.
In the procedure the tumor was removed from passage animals and minced into 1- to 3-mm square fragments using sterile techniques. Tumor pieces were checked for sterility using both Antibiotic Medium 1 and Brain Heart Infusion (Difco, Detroit, Mich.). Recipient mice were shaved and tumor pieces were implanted subcutaneously in the auxiliary region by trocar. Drug therapy on the appropriate schedule was initiated on the day after tumor implant for 6C3HED and after a seven (7) day delay for xenografts (or other delay as noted in Table 2). The compound being tested was mixed with 2.5% Emulphor EL620 from GAF Corporation (1:40 dilution in saline). Food and water were provided ad libitium. The drug was administered orally in 0.5 ml of 2.5% Emulphor (unless otherwise indicated). The tumor was measured the day after treatment ended with two dimensional measurements (width and length) of the tumor taken using automated digital calipers interfaced to a microcomputer. Approximate weight for the tumor was calculated using the following formula [Worzalla, J. F., et al., Invest. New Drugs, 8, 241 (1990], (tumor weight in mg)=(width in mm)^2 ×(length in mm)/2.
At least one control group of an equal number of mice was treated with the same volume of 2.5% Emulphor only. The percent inhibition was determined by subtracting the ratio of the mean tumor size of the test group relative to the control group from one and multiplying the result times 100.
The results of several experiments in mice bearing a 6C3HED lymphosarcoma (or other tumor where indicated) when the indicated compounds were administered are provided in Table 2. In Table 2, column 1 gives the Example number of the compound used, column 2 lists the dose level in mg/kg, column 3 provides the percent inhibition of tumor growth, column 4 gives the number of mice which died relative to the total number of animals in the group, column 5 gives the method of administration of the compound, and column 6 gives the dosage schedule. The protocol used with other tumors was the same as with the 6C3HED lymphosarcoma.

[1] = Mus musculus, 6C3HED, ip, read-out: % inhibition of tumor growth, IP, 150 mg/kg, DX 8
[2] = Mus musculus, 6C3HED, ip, read-out: % inhibition of tumor growth, IP, 300 mg/kg, DX 8
[3] = Mus musculus, 6C3HED, po, read-out: % inhibition of tumor growth, oral, 150 mg/kg, BIDX 8
[4] = Mus musculus, 6C3HED, po, read-out: % inhibition of tumor growth, oral, 300 mg/kg, BIDX 8
[5] = Mus musculus, 6C3HED, po, read-out: % inhibition of tumor growth, oral, 25 mg/kg, BIDX 8
[6] = Mus musculus, 6C3HED, po, read-out: % inhibition of tumor growth, oral, 50 mg/kg, BIDX 8
[7] = Mus musculus, 6C3HED, po, read-out: % inhibition of tumor growth, oral, 150 mg/kg, DX 8
[8] = Mus musculus, 6C3HED, po, read-out: % inhibition of tumor growth, oral, 300 mg/kg, DX 8

| Structure (SMILES) | Tox/Tot (mice which died / total) (IP, 150 mg/kg, DX 8) | Tox/Tot (mice which died / total) (IP, 300 mg/kg, DX 8) | inhibition in vivo at 150 mg/kg [1] [%] | inhibition in vivo at 300 mg/kg [2] [%] | inhibition in vivo at 150 mg/kg [3] [%] | inhibition in vivo at 300 mg/kg [4] [%] | Tox/Tot (mice which died / total) (oral, 150 mg/kg, BIDX 8) | Tox/Tot (mice which died / total) (oral, 150 mg/kg, DX 8) | Tox/Tot (mice which died / total) (oral, 300 mg/kg, BIDX 8) | Tox/Tot (mice which died / total) (oral, 300 mg/kg, DX 8) | inhibition in vivo at 25 mg/kg [5] [%] | inhibition in vivo at 50 mg/kg [6] [%] | Tox/Tot (mice which died / total) (oral, 25 mg/kg, BIDX 8) | Tox/Tot (mice which died / total) (oral, 50 mg/kg, BIDX 8) | inhibition in vivo at 150 mg/kg [7] [%] | inhibition in vivo at 300 mg/kg [8] [%] | also measured |
| --- | --- | --- | --- | --- | --- | --- | --- | --- | --- | --- | --- | --- | --- | --- | --- | --- | --- |
| N=S(=O)(NC(=O)Nc1ccc(Cl)cc1)c1ccc2c(c1)CCC2 (stereo not drawn) [Example 54, N-[[(4-chlorophenyl)amino]carbonyl]-5-indanylsulfonimidamide] | 1/10 | 3/10 | 86 | 94 | 22 | 33 | 0/10 | 0/10 | 0/10 | 0/10 | – | – | – | – | – | – | Tox/Tot (mice which died / total) (IP, 12.5 mg/kg, BIDX 8): 0/10; Tox/Tot (mice which died / total) (IP, 25 mg/kg, BIDX 8): 0/10; Tox/Tot (mice which died / total) (IP, 50 mg/kg, BIDX 8): 0/10; Tox/Tot (mice which died / total) (IP, 100 mg/kg, BIDX 8): 0/10; Tox/Tot (mice which died / total) (IV, 12.5 mg/kg, DX 8): 0/10; Tox/Tot (mice which died / total) (IV, 25 mg/kg, DX 8): 0/10; inhibition in vivo at 12.5 mg/kg (Mus musculus, 6C3HED, ip, read-out: % inhibition of tumor growth, IP, 12.5 mg/kg, BIDX 8): 6%; inhibition in vivo at 25 mg/kg (Mus musculus, 6C3HED, ip, read-out: % inhibition of tumor growth, IP, 25 mg/kg, BIDX 8): 30%; inhibition in vivo at 50 mg/kg (Mus musculus, 6C3HED, ip, read-out: % inhibition of tumor growth, IP, 50 mg/kg, BIDX 8): 44%; inhibition in vivo at 100 mg/kg (Mus musculus, 6C3HED, ip, read-out: % inhibition of tumor growth, IP, 100 mg/kg, BIDX 8): 70%; inhibition in vivo at 12.5 mg/kg (Mus musculus, 6C3HED, iv, read-out: % inhibition of tumor growth, IV, 12.5 mg/kg, DX 8): 3%; inhibition in vivo at 25 mg/kg (Mus musculus, 6C3HED, iv, read-out: % inhibition of tumor growth, IV, 25 mg/kg, DX 8): 19%; inhibition in vivo at 600 mg/kg (Mus musculus, 6C3HED, po, read-out: % inhibition of tumor growth, oral, 600 mg/kg, DX 8): 34%; Tox/Tot (mice which died / total) (oral, 600 mg/kg, DX 8): 0/10 |
| NS(=O)(=NC(=O)Nc1ccc(Cl)cc1)c1ccc(Cl)cc1 (stereo not drawn) [Example 27] | – | – | – | – | – | – | – | – | – | – | 39 | 80 | 0/10 | 0/10 | – | – | inhibition in vivo at 100 mg/kg (Mus musculus, 6C3HED, po, read-out: % inhibition of tumor growth, oral, 100 mg/kg, BIDX 8): 100%; % inhibition of tumor growth (oral, 100 mg/kg, BIDX 8): 94%; % inhibition of tumor growth (oral, 200 mg/kg, BIDX 8): TOX; Tox/Tot (mice which died / total) (oral, 200 mg/kg, BIDX 8): 10/10 |
| CC(=O)OCc1ccc(S(=N)(=O)NC(=O)Nc2ccc(Cl)cc2)cc1 (stereo not drawn) [Example 49, N-[[(4-chlorophenyl)amino]carbonyl]-4-(acetoxymethyl)benzenesulfonimidamide] | 8/10 | 10/10 | 99 | – | 99 | 100 | 0/10 | – | 3/10 | – | 64 | 87 | 0/10 | 0/10 | – | – | Tox/Tot (mice which died / total) (IP, 12.5 mg/kg, DX 8): 0/10; Tox/Tot (mice which died / total) (IP, 25 mg/kg, DX 8): 0/10; Tox/Tot (mice which died / total) (IP, 50 mg/kg, DX 8): 1/10; % inhibition of tumor growth (IP, 300 mg/kg, DX 8): TOX; inhibition in vivo at 12.5 mg/kg (Mus musculus, 6C3HED, ip, read-out: % inhibition of tumor growth, IP, 12.5 mg/kg, DX 8): 29%; inhibition in vivo at 25 mg/kg (Mus musculus, 6C3HED, ip, read-out: % inhibition of tumor growth, IP, 25 mg/kg, DX 8): 36%; inhibition in vivo at 50 mg/kg (Mus musculus, 6C3HED, ip, read-out: % inhibition of tumor growth, IP, 50 mg/kg, DX 8): 63%; inhibition in vivo at 75 mg/kg (Mus musculus, 6C3HED, po, read-out: % inhibition of tumor growth, oral, 75 mg/kg, BIDX 8): 96%; Tox/Tot (mice which died / total) (oral, 75 mg/kg, BIDX 8): 0/10 |
| Cc1ccc(NC(=O)N=S(N)(=O)c2ccc(C)cc2)cc1 (stereo not drawn) [Example 24] | 0/10 | 0/10 | 31 | 52 | – | – | – | 0/10 | – | 0/10 | – | – | – | – | 10 | 40 | – |
| Cc1ccc(S(=O)(=NC(=O)Nc2ccc(Cl)cc2)N(C)C)cc1 (stereo not drawn) [Example 18] | – | 4/8 | – | 93 | – | – | – | 0/10 | – | 0/10 | – | – | – | – | 45 | 63 | Tox/Tot (mice which died / total) (IP, 600 mg/kg, DX 8): 6/8; inhibition in vivo at 600 mg/kg (Mus musculus, 6C3HED, ip, read-out: % inhibition of tumor growth, IP, 600 mg/kg, DX 8): 99% |
| Cc1ccc(S(N)(=O)=NC(=O)N(C)c2ccc(Cl)cc2)cc1 (stereo not drawn) [Example 20] | – | – | – | – | 83 | 93 | 0/10 | – | 0/10 | – | – | – | – | – | – | – | – |
